{"source": "ChEMBL document CHEMBL4507319", "about": "(2021)", "key": {"[1]": {"molecular_target": "Ephrin type-A receptor 2 (Homo sapiens) (UniProt P29317)", "sequence (P29317 whole entry)": "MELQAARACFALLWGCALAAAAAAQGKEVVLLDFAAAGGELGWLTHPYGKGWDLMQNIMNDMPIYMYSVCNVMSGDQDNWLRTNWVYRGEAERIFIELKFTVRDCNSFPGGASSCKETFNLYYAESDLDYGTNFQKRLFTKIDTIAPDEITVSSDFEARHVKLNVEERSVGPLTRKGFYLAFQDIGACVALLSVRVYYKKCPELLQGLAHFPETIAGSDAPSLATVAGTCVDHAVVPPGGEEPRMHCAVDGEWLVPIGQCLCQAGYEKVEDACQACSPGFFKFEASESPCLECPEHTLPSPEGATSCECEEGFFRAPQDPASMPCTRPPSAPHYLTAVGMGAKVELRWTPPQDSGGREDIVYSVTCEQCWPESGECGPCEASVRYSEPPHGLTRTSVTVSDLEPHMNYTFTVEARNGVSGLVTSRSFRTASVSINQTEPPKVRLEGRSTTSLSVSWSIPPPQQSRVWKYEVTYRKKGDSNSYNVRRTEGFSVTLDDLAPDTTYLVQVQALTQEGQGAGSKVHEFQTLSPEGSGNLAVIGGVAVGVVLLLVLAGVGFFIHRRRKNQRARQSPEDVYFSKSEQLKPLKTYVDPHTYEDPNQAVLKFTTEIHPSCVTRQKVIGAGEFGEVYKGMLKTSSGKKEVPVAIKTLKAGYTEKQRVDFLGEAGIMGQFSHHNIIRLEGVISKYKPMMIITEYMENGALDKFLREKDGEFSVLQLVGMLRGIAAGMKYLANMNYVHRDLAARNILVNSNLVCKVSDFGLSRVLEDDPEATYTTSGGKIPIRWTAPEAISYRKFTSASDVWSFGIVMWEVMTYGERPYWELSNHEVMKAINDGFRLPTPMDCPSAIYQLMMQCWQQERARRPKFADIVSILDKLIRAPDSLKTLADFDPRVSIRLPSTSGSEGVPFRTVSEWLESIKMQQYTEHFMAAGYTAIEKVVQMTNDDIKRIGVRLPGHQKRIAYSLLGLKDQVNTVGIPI", "assay": "EphA2(h) Eurofins kinase panel", "conditions": "Compound concentration 1.0 uM"}, "[2]": {"molecular_target": "Serine/threonine-protein kinase MRCK beta (Homo sapiens) (UniProt Q9Y5S2)", "sequence (Q9Y5S2 whole entry)": "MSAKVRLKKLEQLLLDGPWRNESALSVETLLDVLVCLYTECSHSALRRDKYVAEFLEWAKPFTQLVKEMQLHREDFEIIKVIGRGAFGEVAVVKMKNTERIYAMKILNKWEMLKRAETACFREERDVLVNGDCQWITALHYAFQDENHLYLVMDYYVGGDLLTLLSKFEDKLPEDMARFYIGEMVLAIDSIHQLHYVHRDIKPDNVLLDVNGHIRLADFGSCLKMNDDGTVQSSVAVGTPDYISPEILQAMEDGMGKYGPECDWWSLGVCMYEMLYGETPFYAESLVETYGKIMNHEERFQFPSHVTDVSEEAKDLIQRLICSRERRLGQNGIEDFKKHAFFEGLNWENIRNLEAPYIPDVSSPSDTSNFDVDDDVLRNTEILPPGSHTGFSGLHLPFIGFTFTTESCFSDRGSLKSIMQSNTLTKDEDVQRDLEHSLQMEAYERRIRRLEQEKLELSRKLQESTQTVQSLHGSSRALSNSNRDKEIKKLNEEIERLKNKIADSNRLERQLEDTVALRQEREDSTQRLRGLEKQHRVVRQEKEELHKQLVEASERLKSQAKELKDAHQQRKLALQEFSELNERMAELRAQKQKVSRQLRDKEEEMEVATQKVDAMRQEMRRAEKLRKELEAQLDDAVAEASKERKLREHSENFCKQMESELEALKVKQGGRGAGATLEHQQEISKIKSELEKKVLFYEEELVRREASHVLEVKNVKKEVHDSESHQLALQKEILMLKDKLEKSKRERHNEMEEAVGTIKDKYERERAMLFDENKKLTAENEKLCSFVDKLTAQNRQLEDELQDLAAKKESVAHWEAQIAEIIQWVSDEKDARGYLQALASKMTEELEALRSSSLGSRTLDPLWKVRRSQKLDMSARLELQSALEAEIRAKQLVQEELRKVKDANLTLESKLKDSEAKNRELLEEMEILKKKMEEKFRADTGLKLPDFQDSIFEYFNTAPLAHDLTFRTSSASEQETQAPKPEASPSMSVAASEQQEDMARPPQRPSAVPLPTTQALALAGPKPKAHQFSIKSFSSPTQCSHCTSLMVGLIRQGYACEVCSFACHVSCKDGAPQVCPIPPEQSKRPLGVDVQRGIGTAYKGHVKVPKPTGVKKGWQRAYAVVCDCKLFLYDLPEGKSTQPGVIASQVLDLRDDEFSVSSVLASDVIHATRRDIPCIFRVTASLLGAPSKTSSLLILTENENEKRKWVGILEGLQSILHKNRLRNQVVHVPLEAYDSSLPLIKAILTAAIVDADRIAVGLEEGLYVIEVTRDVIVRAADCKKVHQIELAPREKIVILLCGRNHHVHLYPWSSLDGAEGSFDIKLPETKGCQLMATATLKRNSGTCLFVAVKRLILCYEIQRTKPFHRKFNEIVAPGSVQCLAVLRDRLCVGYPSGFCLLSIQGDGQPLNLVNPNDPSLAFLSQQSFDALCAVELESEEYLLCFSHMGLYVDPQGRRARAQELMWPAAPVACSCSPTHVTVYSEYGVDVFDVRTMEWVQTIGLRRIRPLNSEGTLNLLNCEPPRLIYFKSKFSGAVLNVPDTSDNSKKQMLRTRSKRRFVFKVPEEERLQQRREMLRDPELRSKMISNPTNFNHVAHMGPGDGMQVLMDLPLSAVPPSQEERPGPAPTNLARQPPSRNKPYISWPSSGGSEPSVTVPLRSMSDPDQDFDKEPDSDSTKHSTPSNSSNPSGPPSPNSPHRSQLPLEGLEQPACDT", "assay": "MRCKbeta(h) Eurofins kinase panel", "conditions": "Compound concentration 1.0 uM"}, "[3]": {"molecular_target": "Insulin-like growth factor 1 receptor (Homo sapiens) (UniProt P08069)", "assay": "IGF-1R(h) Eurofins kinase panel", "conditions": "Compound concentration 1.0 uM"}, "[4]": {"molecular_target": "CDK9/cyclin T1 (Homo sapiens) (UniProt O60563+P50750)", "assay": "CDK9/cyclin T1(h) Eurofins kinase panel", "format": "protein-complex assay", "conditions": "Compound concentration 1.0 uM"}, "[5]": {"molecular_target": "T1, Tyrosine-protein kinase Tec (Homo sapiens) (UniProt P42680)", "T1 sequence (whole entry)": "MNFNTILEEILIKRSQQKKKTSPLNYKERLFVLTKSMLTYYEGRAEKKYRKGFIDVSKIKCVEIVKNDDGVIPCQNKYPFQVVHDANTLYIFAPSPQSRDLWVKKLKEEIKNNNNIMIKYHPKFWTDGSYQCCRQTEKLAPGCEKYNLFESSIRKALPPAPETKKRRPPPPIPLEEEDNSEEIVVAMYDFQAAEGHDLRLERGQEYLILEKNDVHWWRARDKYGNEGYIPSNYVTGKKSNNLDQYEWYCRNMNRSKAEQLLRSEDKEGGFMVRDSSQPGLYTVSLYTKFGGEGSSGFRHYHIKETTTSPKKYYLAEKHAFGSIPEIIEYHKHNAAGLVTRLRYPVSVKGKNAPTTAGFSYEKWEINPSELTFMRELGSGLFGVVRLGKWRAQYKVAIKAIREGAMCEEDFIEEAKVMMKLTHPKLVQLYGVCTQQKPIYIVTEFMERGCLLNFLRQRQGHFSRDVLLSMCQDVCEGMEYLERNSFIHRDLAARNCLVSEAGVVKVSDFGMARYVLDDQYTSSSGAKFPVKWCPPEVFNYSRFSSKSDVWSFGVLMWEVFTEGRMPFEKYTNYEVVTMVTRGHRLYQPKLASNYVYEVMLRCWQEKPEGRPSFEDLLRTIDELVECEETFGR", "assay": "Tec(h) activated Eurofins kinase panel", "conditions": "Compound concentration 1.0 uM"}, "[6]": {"molecular_target": "T2, Interleukin-1 receptor-associated kinase 4 (Homo sapiens) (UniProt Q9NWZ3)", "T2 sequence (whole entry)": "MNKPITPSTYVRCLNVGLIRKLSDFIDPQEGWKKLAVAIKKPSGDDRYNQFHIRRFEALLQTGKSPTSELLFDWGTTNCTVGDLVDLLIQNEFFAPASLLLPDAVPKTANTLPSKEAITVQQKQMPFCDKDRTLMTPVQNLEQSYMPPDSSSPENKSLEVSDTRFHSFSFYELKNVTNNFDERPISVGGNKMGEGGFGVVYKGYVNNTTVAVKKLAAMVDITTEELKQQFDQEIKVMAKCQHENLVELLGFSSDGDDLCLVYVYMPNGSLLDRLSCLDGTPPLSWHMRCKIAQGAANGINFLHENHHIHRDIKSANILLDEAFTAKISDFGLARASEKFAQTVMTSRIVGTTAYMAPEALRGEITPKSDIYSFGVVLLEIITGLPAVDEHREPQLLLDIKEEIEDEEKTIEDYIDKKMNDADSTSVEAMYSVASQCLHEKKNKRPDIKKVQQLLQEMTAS", "assay": "IRAK4(h) Eurofins kinase panel", "conditions": "Compound concentration 1.0 uM"}, "[7]": {"molecular_target": "Proto-oncogene tyrosine-protein kinase ROS (Homo sapiens) (UniProt P08922)", "assay": "Ros(h) Eurofins kinase panel", "conditions": "Compound concentration 1.0 uM"}, "[8]": {"molecular_target": "Fibroblast growth factor receptor 1 (Homo sapiens) (UniProt P11362)", "assay": "FGFR1(h) Eurofins kinase panel", "conditions": "Compound concentration 1.0 uM"}, "[9]": {"molecular_target": "Mitogen-activated protein kinase kinase kinase 9 (Homo sapiens) (UniProt P80192)", "assay": "MLK1(h) Eurofins kinase panel", "conditions": "Compound concentration 1.0 uM"}, "[10]": {"molecular_target": "Serine/threonine-protein kinase 35 (Homo sapiens) (UniProt Q8TDR2)", "assay": "CLIK1(h) Eurofins kinase panel", "conditions": "Compound concentration 1.0 uM"}, "[11]": {"molecular_target": "CDK6/cyclin D3 (Homo sapiens) (UniProt P30281+Q00534)", "assay": "CDK6/cyclinD3(h) Eurofins kinase panel", "format": "protein-complex assay", "conditions": "Compound concentration 1.0 uM"}, "[12]": {"molecular_target": "Serine/threonine-protein kinase/endoribonuclease IRE1 (Homo sapiens) (UniProt O75460)", "assay": "IRE1(h) Eurofins kinase panel", "conditions": "Compound concentration 1.0 uM"}, "[13]": {"molecular_target": "PI3-kinase p110-delta/p85-alpha (Homo sapiens) (UniProt P27986+O00329)", "assay": "PI3 Kinase(p110d/p85a)(h) Eurofins kinase panel", "format": "protein-complex assay", "conditions": "Compound concentration 1.0 uM"}, "NCI-H292": {"system": "NCI-H292", "assay": "NCI- H292 cell line Proliferation assay", "format": "functional, Homo sapiens", "conditions": "time 3 day"}, "[14]": {"molecular_target": "Serine/threonine-protein kinase pim-1 (Homo sapiens) (UniProt P11309)", "assay": "Pim-1(h) Eurofins kinase panel", "conditions": "Compound concentration 1.0 uM"}, "[15]": {"molecular_target": "T3, Inhibitor of nuclear factor kappa-B kinase subunit beta (Homo sapiens) (UniProt O14920)", "T3 sequence (whole entry)": "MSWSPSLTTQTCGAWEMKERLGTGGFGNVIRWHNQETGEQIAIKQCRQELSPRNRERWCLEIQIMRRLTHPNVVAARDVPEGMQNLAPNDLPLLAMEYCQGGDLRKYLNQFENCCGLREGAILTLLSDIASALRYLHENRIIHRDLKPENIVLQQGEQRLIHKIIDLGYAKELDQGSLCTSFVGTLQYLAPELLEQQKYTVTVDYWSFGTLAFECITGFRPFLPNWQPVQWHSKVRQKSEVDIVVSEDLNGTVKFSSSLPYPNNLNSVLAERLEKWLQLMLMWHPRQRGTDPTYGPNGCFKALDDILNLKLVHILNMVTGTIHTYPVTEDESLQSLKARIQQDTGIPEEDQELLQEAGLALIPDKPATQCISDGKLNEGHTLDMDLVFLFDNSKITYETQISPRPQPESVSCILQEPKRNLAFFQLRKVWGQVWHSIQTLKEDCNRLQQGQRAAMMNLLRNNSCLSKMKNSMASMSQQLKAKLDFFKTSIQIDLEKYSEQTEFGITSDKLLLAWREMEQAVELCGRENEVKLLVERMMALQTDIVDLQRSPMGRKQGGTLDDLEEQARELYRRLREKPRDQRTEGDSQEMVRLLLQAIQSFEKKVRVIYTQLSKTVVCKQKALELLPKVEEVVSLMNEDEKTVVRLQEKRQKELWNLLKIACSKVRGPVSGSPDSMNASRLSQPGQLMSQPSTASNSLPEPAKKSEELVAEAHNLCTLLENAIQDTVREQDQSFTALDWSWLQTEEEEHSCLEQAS", "assay": "IKKbeta(h) Eurofins kinase panel", "conditions": "Compound concentration 1.0 uM"}, "[16]": {"molecular_target": "TRAF2 and NCK-interacting protein kinase (Homo sapiens) (UniProt Q9UKE5)", "sequence (Q9UKE5 whole entry, looked up)": "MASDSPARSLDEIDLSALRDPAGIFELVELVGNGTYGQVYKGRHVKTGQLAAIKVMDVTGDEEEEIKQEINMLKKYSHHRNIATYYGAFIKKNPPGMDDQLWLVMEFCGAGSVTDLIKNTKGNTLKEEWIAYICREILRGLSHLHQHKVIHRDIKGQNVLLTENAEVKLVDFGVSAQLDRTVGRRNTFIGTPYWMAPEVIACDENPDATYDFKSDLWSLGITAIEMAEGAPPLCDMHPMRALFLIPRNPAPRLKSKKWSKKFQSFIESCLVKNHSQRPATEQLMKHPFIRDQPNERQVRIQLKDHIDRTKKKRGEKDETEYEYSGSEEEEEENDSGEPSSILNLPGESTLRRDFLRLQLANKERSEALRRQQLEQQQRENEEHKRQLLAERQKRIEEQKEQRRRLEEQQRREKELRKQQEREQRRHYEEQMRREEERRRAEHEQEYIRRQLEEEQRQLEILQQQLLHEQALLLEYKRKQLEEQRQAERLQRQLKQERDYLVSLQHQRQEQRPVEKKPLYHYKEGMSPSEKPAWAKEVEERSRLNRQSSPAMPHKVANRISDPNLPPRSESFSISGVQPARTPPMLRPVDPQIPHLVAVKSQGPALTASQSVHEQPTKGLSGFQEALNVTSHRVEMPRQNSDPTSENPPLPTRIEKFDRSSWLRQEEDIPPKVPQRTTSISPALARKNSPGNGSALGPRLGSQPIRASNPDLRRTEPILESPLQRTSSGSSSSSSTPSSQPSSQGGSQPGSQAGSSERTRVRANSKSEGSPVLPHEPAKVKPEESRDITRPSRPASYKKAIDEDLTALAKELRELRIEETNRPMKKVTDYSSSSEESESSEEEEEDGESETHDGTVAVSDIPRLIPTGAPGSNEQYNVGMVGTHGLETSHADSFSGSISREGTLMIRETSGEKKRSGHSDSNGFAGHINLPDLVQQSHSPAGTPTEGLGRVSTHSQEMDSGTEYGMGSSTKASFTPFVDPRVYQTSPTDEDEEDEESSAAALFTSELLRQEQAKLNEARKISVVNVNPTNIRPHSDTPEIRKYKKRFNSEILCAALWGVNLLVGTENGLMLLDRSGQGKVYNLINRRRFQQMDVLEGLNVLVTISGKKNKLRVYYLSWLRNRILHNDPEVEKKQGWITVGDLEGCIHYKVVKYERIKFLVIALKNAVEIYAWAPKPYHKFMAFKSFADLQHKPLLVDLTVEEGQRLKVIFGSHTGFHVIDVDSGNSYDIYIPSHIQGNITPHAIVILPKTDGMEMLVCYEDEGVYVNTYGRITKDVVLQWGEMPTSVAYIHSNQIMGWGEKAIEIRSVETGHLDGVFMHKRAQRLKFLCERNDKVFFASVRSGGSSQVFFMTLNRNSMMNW", "assay": "TNIK(h) Eurofins kinase panel", "conditions": "Compound concentration 1.0 uM"}, "[17]": {"molecular_target": "Cyclin-dependent kinase 2/cyclin A (Homo sapiens) (UniProt P24941+P20248+P78396)", "assay": "CDK2/cyclinA(h) Eurofins kinase panel", "format": "protein-complex assay", "conditions": "Compound concentration 1.0 uM"}, "[18]": {"molecular_target": "Leukocyte tyrosine kinase receptor (Homo sapiens) (UniProt P29376)", "assay": "LTK(h) Eurofins kinase panel", "conditions": "Compound concentration 1.0 uM"}, "[19]": {"molecular_target": "Ephrin type-A receptor 4 (Homo sapiens) (UniProt P54764)", "sequence (P54764 whole entry)": "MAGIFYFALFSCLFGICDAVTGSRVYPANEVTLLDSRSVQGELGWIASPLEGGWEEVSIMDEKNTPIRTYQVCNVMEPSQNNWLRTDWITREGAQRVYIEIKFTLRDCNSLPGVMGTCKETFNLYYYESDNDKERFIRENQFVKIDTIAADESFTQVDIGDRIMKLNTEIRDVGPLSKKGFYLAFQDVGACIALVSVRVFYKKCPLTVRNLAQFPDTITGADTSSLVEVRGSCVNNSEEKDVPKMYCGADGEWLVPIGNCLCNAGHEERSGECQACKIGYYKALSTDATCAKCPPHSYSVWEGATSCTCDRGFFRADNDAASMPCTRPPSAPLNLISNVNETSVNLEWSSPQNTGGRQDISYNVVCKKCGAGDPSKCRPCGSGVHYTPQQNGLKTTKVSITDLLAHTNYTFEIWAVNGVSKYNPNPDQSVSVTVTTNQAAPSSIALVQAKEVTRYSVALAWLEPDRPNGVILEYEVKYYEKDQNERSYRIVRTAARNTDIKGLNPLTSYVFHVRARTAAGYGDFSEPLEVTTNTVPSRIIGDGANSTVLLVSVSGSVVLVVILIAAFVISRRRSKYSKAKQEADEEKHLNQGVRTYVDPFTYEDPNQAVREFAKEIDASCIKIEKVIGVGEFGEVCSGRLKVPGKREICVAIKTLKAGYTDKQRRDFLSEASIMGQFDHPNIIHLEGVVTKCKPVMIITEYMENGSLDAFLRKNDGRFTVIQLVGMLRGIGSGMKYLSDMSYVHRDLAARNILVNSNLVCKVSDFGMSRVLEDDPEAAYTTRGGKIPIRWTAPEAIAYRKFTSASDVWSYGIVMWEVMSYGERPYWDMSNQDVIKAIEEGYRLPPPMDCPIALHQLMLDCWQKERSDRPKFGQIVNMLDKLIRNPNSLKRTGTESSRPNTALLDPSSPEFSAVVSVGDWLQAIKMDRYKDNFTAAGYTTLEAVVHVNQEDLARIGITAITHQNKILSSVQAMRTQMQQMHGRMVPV", "assay": "EphA4(h) Eurofins kinase panel", "conditions": "Compound concentration 1.0 uM"}}, "data": [{"smiles": "CCc1ccccc1C(=O)Nc1n[nH]c2c(C)c(F)c(C3C(C#N)=C(C)N(C)C(C)=C3C#N)cc12", "note": "[BAY-3827]", "values": [{"measurement": "% residual kinase activity", "setting": "[1]", "value": 88, "unit": "%"}, {"measurement": "% residual kinase activity", "setting": "[2]", "value": 109, "unit": "%"}, {"measurement": "% residual kinase activity", "setting": "[3]", "value": 110, "unit": "%"}, {"measurement": "% residual kinase activity", "setting": "[4]", "value": 91, "unit": "%"}, {"measurement": "% residual kinase activity", "setting": "[5]", "value": 100, "unit": "%"}, {"measurement": "% residual kinase activity", "setting": "[6]", "value": 103, "unit": "%"}, {"measurement": "% residual kinase activity", "setting": "[7]", "value": 100, "unit": "%"}, {"measurement": "% residual kinase activity", "setting": "[8]", "value": 61, "unit": "%"}, {"measurement": "% residual kinase activity", "setting": "[9]", "value": 93, "unit": "%"}, {"measurement": "% residual kinase activity", "setting": "[10]", "value": 80, "unit": "%"}, {"measurement": "% residual kinase activity", "setting": "[11]", "value": 110, "unit": "%"}, {"measurement": "% residual kinase activity", "setting": "[12]", "value": 104, "unit": "%"}, {"measurement": "% residual kinase activity", "setting": "[13]", "value": 103, "unit": "%"}, {"measurement": "Cell Proliferation IC50", "setting": "NCI-H292", "value": 17.1, "unit": "µM"}, {"measurement": "% residual kinase activity", "setting": "[14]", "value": 119, "unit": "%"}, {"measurement": "% residual kinase activity", "setting": "[15]", "value": 106, "unit": "%"}, {"measurement": "% residual kinase activity", "setting": "[16]", "value": 49, "unit": "%"}, {"measurement": "% residual kinase activity", "setting": "[17]", "value": 100, "unit": "%"}, {"measurement": "% residual kinase activity", "setting": "[18]", "value": 100, "unit": "%"}, {"measurement": "% residual kinase activity", "setting": "[19]", "value": 106, "unit": "%"}]}]}
